Legend:
[1] = target: human JAK1 (a.a. 837-1142) (Homo sapiens, UniProt P23458); test: In vitro JAK kinase assay (HTRF), JAK1; assay type: biochemical; conditions: 1 mM ATP
[2] = tested on: human JAK1 (a.a. 837-1142); test: In vitro JAK kinase assay (HTRF), JAK1; assay type: biochemical; conditions: IC50 ratio at 1 mM ATP
[3] = tested on: Transformed human keratinocyte (HaCaT) cells stimulated with TNFα and IFNγ; test: JAK inhibitors in TNFα/IFNγ stimulated keratinocytes, gene expression (QuantiGene Plex); conditions: 24 hours, normalized to HPRT1, mean ± standard error
[4] = tested on: Transformed human keratinocyte (HaCaT) cells stimulated with TNFα and IFNγ; test: JAK inhibitors in TNFα/IFNγ stimulated keratinocytes, inflammatory mediators in media (ProCarta Multiplex Immunoassay); conditions: mean ± 1 standard error
[5] = TNFα (25 ng/mL) and IFNγ (25 ng/mL), drug 25 nM
[6] = TNFα (25 ng/mL) and IFNγ (25 ng/mL), drug 50 nM
[7] = TNFα (25 ng/mL) and IFNγ (25 ng/mL), drug 100 nM
[8] = TNFα (25 ng/mL) and IFNγ (25 ng/mL), drug 200 nM
[9] = TNFα (25 ng/mL) and IFNγ (25 ng/mL) stimulation, drug 25 nM
[10] = TNFα (25 ng/mL) and IFNγ (25 ng/mL) stimulation, drug 50 nM
[11] = TNFα (25 ng/mL) and IFNγ (25 ng/mL) stimulation, drug 100 nM
[12] = TNFα (25 ng/mL) and IFNγ (25 ng/mL) stimulation, drug 200 nM

N#CCC1(n2cc(-c3ncnc4[nH]ccc34)cn2)CN(C2CCN(C(=O)c3ccnc(C(F)(F)F)c3F)CC2)C1 [Compound 1, {1-{1-[3-Fluoro-2-(trifluoromethyl)isonicotinoyl]piperidin-4-yl}-3-[4-(7H-pyrrolo[2,3-d]pyrimidin-4-yl)-1H-pyrazol-1-yl]azetidin-3-yl}acetonitrile]
IC50 [1]: < 10 nM | JAK2/JAK1 [2]: >10 | IL-1α MFI [3, 5]: 1288.02 ± 20 | IL-6 MFI [3, 5]: 130.24 ± 3.84 | JAK1 MFI [3, 5]: 216.23 ± 6.41 | JAK2 MFI [3, 5]: 109.39 ± 2.8 | JAK3 MFI [3, 5]: 0.84 ± 0.12 | STAT1 MFI [3, 5]: 2868.69 ± 202.69 | STAT3 MFI [3, 5]: 1466.73 ± 66.75 | STAT4 MFI [3, 5]: 6.00 ± 0.46 | STAT5A MFI [3, 5]: 23.69 ± 1.63 | STAT6 MFI [3, 5]: 1004.82 ± 23.76 | TYK2 MFI [3, 5]: 292.92 ± 7.99 | IL-1α MFI [3, 6]: 1258.76 ± 23.63 | IL-6 MFI [3, 6]: 122.69 ± 4.36 | JAK1 MFI [3, 6]: 210.42 ± 10.89 | JAK2 MFI [3, 6]: 101 ± 2.26 | JAK3 MFI [3, 6]: 0.83 ± 0.15 | STAT1 MFI [3, 6]: 2862.58 ± 163.98 | STAT3 MFI [3, 6]: 1437.28 ± 60.69 | STAT4 MFI [3, 6]: 6.22 ± 0.42 | STAT5A MFI [3, 6]: 22.32 ± 2.16 | STAT6 MFI [3, 6]: 990.05 ± 21.06 | TYK2 MFI [3, 6]: 287.31 ± 11.08 | IL-1α MFI [3, 7]: 1162.35 ± 23.34 | IL-6 MFI [3, 7]: 111.07 ± 4.74 | JAK1 MFI [3, 7]: 205.03 ± 11.49 | JAK2 MFI [3, 7]: 94.5 ± 2.65 | JAK3 MFI [3, 7]: 0.92 ± 0.13 | STAT1 MFI [3, 7]: 2790.32 ± 176.4 | STAT3 MFI [3, 7]: 1373.34 ± 55.51 | STAT4 MFI [3, 7]: 6.21 ± 0.48 | STAT5A MFI [3, 7]: 20.87 ± 2.1 | STAT6 MFI [3, 7]: 987.64 ± 15.75 | TYK2 MFI [3, 7]: 284.15 ± 9.62 | IL-1α MFI [3, 8]: 1126.94 ± 26.22 | IL-6 MFI [3, 8]: 93.03 ± 3.25 | JAK1 MFI [3, 8]: 195.97 ± 10.45 | JAK2 MFI [3, 8]: 89.16 ± 3.43 | JAK3 MFI [3, 8]: 0.79 ± 0.15 | STAT1 MFI [3, 8]: 2857.2 ± 174.57 | STAT3 MFI [3, 8]: 1400.77 ± 58.44 | STAT4 MFI [3, 8]: 6.27 ± 0.56 | STAT5A MFI [3, 8]: 19.2 ± 1.94 | STAT6 MFI [3, 8]: 985.17 ± 29.31 | TYK2 MFI [3, 8]: 277.52 ± 8.67 | IL-1α MFI ([3]; no stimulation, drug 200 nM): 85.16 ± 6.50 | IL-6 MFI ([3]; no stimulation, drug 200 nM): 4.97 ± 0.36 | JAK1 MFI ([3]; no stimulation, drug 200 nM): 171.53 ± 9.49 | JAK2 MFI ([3]; no stimulation, drug 200 nM): 25.21 ± 1.12 | JAK3 MFI ([3]; no stimulation, drug 200 nM): 0.63 ± 0.10 | STAT1 MFI ([3]; no stimulation, drug 200 nM): 535.07 ± 22.13 | STAT3 MFI ([3]; no stimulation, drug 200 nM): 732.19 ± 23.03 | STAT4 MFI ([3]; no stimulation, drug 200 nM): 4.01 ± 0.45 | STAT5A MFI ([3]; no stimulation, drug 200 nM): 1.44 ± 0.41 | STAT6 MFI ([3]; no stimulation, drug 200 nM): 740.11 ± 34.98 | TYK2 MFI ([3]; no stimulation, drug 200 nM): 217.28 ± 10.09 | IL-1α concentration in media [4, 9]: 7.34 ± 0.31 pg/mL | IL-6 concentration in media [4, 9]: 749.64 ± 32.94 pg/mL | IP-10/CXCL10 concentration in media [4, 9]: 4068.98 ± 507.12 pg/mL | MIP1α concentration in media [4, 9]: 103.81 ± 3.29 pg/mL | RANTES concentration in media [4, 9]: 203.77 ± 12.55 pg/mL | IL-1α concentration in media [4, 10]: 7.06 ± 0.37 pg/mL | IL-6 concentration in media [4, 10]: 674.21 ± 27.15 pg/mL | IP-10/CXCL10 concentration in media [4, 10]: 3872.74 ± 295.01 pg/mL | MIP1α concentration in media [4, 10]: 100.64 ± 4.66 pg/mL | RANTES concentration in media [4, 10]: 198.35 ± 15.1 pg/mL | IL-1α concentration in media [4, 11]: 7 ± 0.41 pg/mL | IL-6 concentration in media [4, 11]: 643.8 ± 27.14 pg/mL | IP-10/CXCL10 concentration in media [4, 11]: 4050.7 ± 471.31 pg/mL | MIP1α concentration in media [4, 11]: 91.52 ± 5.05 pg/mL | RANTES concentration in media [4, 11]: 194.21 ± 12.67 pg/mL | IL-1α concentration in media [4, 12]: 6.16 ± 0.35 pg/mL | IL-6 concentration in media [4, 12]: 568.73 ± 24.74 pg/mL | IP-10/CXCL10 concentration in media [4, 12]: 4071.78 ± 411.22 pg/mL | MIP1α concentration in media [4, 12]: 83.1 ± 2.77 pg/mL | RANTES concentration in media [4, 12]: 183.18 ± 13.92 pg/mL | IL-1α concentration in media ([4]; no stimulation, drug 200 nM): 0.29 ± 0.03 pg/mL | IL-6 concentration in media ([4]; no stimulation, drug 200 nM): 28.49 ± 2.89 pg/mL | IP-10/CXCL10 concentration in media ([4]; no stimulation, drug 200 nM): 19.83 ± 0.40 pg/mL | MIP1α concentration in media ([4]; no stimulation, drug 200 nM): 2.75 ± 0.26 pg/mL | RANTES concentration in media ([4]; no stimulation, drug 200 nM): 8.42 ± 0.51 pg/mL

— patent US11304949B2, “Treatment of hidradenitis suppurativa using JAK inhibitors” (Incyte Corporation, priority 2018, dated 2022)
